Assay results reported in article PMC8518066, “Efficient Entropy‐Driven Inhibition of Dipeptidyl Peptidase III by Hydroxyethylene Transition‐State Peptidomimetics” (Chemistry (Weinheim an Der Bergstrasse, Germany), 2021).
Positions count from the first letter of the chain named. Like-named read-outs stand apart in the source and are kept apart here.

What was measured:
[1] = test system: Mammalian DPP3; parameters: method as in PMID 7931295, PMID 9425109; settings: cited from earlier work
[2] = test system: DPP3 in mouse brain homogenate; assay: Ex vivo DPP3 inhibition in mouse brain homogenate; assay type: biochemical; settings: Figure SI1
[3] = biological target: T1, hDPP3 (inactive variant E451A) (Homo sapiens, UniProt Q9NY33, E451A); assay: Isothermal titration calorimetry (ITC); assay type: binding; settings: mean of three independent measurements; for Kd: hDPP3 E451A, 298 K
T1 construct: His6 (cleaved yes); made in house; host or cells: E. coli BL21-CodonPlus (DE3) RIL
T1 sequence (Q9NY33 1-726 E451A): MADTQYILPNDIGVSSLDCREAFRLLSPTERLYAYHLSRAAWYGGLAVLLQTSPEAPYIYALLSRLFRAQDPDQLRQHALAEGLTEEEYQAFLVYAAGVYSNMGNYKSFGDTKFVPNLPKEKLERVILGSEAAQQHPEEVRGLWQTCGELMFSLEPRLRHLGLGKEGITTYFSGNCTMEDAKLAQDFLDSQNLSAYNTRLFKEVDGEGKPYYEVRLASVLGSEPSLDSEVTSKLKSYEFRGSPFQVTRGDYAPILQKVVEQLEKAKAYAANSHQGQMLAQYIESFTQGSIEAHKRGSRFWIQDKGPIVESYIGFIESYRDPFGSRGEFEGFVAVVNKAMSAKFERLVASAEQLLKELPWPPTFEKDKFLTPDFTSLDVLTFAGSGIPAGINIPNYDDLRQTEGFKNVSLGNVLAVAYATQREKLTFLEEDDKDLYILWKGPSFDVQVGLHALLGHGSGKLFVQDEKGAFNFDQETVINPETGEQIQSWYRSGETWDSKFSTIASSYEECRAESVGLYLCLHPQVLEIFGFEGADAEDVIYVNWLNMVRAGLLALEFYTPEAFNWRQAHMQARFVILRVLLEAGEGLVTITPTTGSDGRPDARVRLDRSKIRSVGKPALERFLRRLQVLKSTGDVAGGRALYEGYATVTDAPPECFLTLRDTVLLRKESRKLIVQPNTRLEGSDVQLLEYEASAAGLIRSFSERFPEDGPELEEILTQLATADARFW

[4] = biological target: T2, hDPP3 (Homo sapiens, UniProt Q9NY33); assay: Fluorescence-based competitive enzyme inhibition assay (degradation of H-Arg-Arg-βNA substrate); assay type: biochemical; settings: for IC50: hDPP3, H-Arg-Arg-βNA substrate, 37 °C, pH 8.0
T2 construct: His6 (cleaved yes); made in house; host or cells: E. coli BL21-CodonPlus (DE3) RIL
T2 sequence (Q9NY33 1-726): T1 sequence (Q9NY33 1-726 E451A) with A451E

[5] = biological target: T2, hDPP3; assay: Time-dependent inhibition of hDPP3 by tynorphin and HER; assay type: biochemical; settings: inhibitor at 5 times IC50, room temperature, 0-24 h
[6] = biological target: T2, hDPP3; assay: Thermal shift assay (Thermofluor); assay type: binding; settings: 10 µM hDPP3, 50 µM HER
[7] = test system: placental DPP3; parameters: method as in PMID 9711218; settings: placental DPP3, H-Arg-Arg-βNA substrate; cited from earlier work

In the case of `Cc1ccc(S(=O)(=O)N[C@@H](Cc2ccccc2)C(=O)CCl)cc1` [TPCK, tosyl‐phenylalanyl chloromethyl ketone], the “inhibition of mammalian DPP3” value [1] is given as “significantly inhibited”.
In the case of `CC(C)C(N)C(=O)NC(C(C)C)C(O)CC(Cc1ccccc1)C(=O)N1CCCC1C(=O)NC(Cc1c[nH]c2ccccc12)C(=O)O` (stereo not shown) [HER], the “inhibition of DPP3 in mouse brain homogenate” value [2] is reported as “efficiently inhibit DPP3 in mouse brain homogenate without losing much of its potency”, the melting point is reported as 148 to 152 °C and the Kd [3] is reported as 11 µM. The “-TΔS” value [3] was -16.0 kcal/mol, the ΔH [3] was 10.7 kcal/mol and the “potency relative to SHE (IC50 ratio)” value ([4]; HER versus SHE) was 7 fold. The IC50 [4] was 13.8 µM, the “time-dependent inhibition of hDPP3 (stability against the peptidase)” value [5] was “efficiently inhibit the activity over a period of 24 h” and the “Melting temperature (Tm) of hDPP3+HER” value ([6]; t=0 h of incubation) was 57.5 °C. The “Melting temperature (Tm) of hDPP3+HER” value ([6]; t=24 h of incubation) was 57 °C.
For `CC(C)[C@H](NC(=O)[C@@H](N)C(C)(C)C)[C@H](O)C[C@@H](Cc1ccccc1)C(=O)N1CCCC[C@H]1C(=O)N[C@@H](Cc1c[nH]c2ccccc12)C(=O)O` [37 b], the melting point was 164 to 166 °C.
For `O=S(=O)(F)Cc1ccccc1` [PMSF, phenylmethanesulfonylfluoride], the “inhibition of mammalian DPP3” value [1] is listed as “significantly inhibited”.
For `Cc1cc(=O)c2c(cc(O)c3c4c(O)cccc4c(=O)c32)c1=O` [fluostatins A], the IC50 [7] is listed as 1.44 µM.
`CC(C)[C@H](N)C(=O)N[C@@H](C(C)C)[C@H](O)C[C@@H](Cc1ccc(F)cc1)C(=O)N1CCC[C@H]1C(=O)N[C@@H](Cc1c[nH]c2ccccc12)C(=O)O` gave a melting point of 168 to 170 °C.
For tynorphin [reference compound], the “time-dependent inhibition of hDPP3 (stability against the peptidase)” value [5] was “lost its efficacy within the first hour”.
In the case of `O=c1oc(Cl)c(Cl)c2ccccc12` [DCI, 3,4‐dichloroisocoumarin], the “inhibition of mammalian DPP3” value ([1]; covalently binding serine peptidase inhibitors) is given as “significantly inhibited”.
In the case of `COC(=O)[C@H](Cc1c[nH]c2ccccc12)NC(=O)[C@@H]1CCCN1C(=O)[C@H](Cc1ccc(O)cc1)C[C@@H](O)[C@@H](NC(=O)[C@@H](N)C(C)C)C(C)C` [compound 32], the melting point is reported as 148 to 150 °C and the IC50 [4] is reported as 17.9 µM.
With `CC(C)[C@H](N)C(=O)N[C@@H](C(C)C)[C@@H](O)C[C@@H](Cc1ccccc1)C(=O)N1CCC[C@H]1C(=O)N[C@@H](Cc1c[nH]c2ccccc12)C(=O)O` [SHE] the Kd [3] was 23 µM, the “-TΔS” value [3] was -8.1 kcal/mol and the ΔH [3] was 2.3 kcal/mol. It also gave an IC50 [4] of 98.5 µM.
Compound `CC(C)[C@H](N)C(=O)N[C@@H](C(C)C)[C@H](O)C[C@@H](Cc1ccc(O)cc1)C(=O)N1CCC[C@H]1C(=O)N[C@@H](Cc1c[nH]c2ccccc12)C(=O)O` has a melting point of 172 to 174 °C.
`CC(C)[C@H](N)C(=O)N[C@@H](C(C)C)[C@H](O)C[C@@H](Cc1ccccc1)C(=O)N1CCCC[C@H]1C(=O)N[C@@H](Cc1c[nH]c2ccccc12)C(=O)O` [37 a] showed a melting point of 160 to 162 °C and an IC50 [4] of 34.4 µM.
In the case of `CC1C(=O)c2cc(O)c3c(c2C(O)C1O)C(=O)c1cccc(O)c1-3` (stereo not shown) [B, fluostatins A and B], the IC50 [7] is listed as 74 µM.
With `Cc1ccc(C[C@H](C[C@@H](O)[C@@H](NC(=O)[C@@H](N)C(C)C)C(C)C)C(=O)N2CCC[C@H]2C(=O)N[C@@H](Cc2c[nH]c3ccccc23)C(=O)O)cc1` the melting point was 160 to 162 °C.
